Here are results for 3 molecules from ChEMBL document CHEMBL5729410, “Urea-substituted aromatic ring-linked dioxinoquinoline compounds, preparation method and uses thereof” (2022).

Test [1] concerns the target Proto-oncogene tyrosine-protein kinase receptor Ret (Homo sapiens, UniProt P07949). Kind of test: Assay of Small Molecular Compounds for Inhibiting the Activity of RET Kinase: The assay is based on the LANCE TR-FRET technology of Perkin Elmer Inc., and the assay method is as follows:1. Background: TR-FRET usually uses a lanthanide donor and a delayed reading to cut background.

Test [2] addresses Vascular endothelial growth factor receptor 2 (Homo sapiens, UniProt P35968). Kind of test: Assay of Small Molecular Compounds for Inhibiting the Activity of VEGFR-2 Kinase: The assay is based on the LANCE TR-FRET technology of Perkin Elmer Inc., and the assay method is as follows:1.

Sequence of Proto-oncogene tyrosine-protein kinase receptor Ret (P07949 whole entry): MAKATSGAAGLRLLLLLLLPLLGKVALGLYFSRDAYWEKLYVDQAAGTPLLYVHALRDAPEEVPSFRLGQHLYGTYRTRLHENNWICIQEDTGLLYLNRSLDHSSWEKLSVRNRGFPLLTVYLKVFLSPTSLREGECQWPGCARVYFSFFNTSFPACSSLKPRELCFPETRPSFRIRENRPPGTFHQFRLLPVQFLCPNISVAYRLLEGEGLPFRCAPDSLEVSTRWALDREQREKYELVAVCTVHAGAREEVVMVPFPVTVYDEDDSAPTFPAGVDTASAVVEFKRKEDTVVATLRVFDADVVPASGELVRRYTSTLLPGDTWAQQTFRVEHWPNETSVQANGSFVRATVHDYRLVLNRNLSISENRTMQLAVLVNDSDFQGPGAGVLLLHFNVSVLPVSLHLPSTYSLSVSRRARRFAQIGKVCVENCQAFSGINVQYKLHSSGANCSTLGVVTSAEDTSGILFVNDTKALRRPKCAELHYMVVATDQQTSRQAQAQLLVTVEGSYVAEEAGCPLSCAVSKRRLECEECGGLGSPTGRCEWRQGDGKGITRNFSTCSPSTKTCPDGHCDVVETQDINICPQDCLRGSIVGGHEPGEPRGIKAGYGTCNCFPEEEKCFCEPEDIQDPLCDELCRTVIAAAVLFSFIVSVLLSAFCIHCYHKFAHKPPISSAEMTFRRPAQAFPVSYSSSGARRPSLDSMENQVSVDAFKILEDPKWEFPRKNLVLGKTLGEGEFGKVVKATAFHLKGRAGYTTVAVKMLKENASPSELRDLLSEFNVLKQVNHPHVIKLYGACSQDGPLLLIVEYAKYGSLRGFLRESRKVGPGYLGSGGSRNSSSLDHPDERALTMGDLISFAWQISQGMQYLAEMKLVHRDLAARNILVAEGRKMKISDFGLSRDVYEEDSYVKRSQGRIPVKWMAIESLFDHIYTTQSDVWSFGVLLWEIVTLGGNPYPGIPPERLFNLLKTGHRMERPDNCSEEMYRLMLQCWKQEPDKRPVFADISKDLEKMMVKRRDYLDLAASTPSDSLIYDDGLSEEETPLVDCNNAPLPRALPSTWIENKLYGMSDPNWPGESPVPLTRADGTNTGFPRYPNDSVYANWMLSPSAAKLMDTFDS
Sequence of Vascular endothelial growth factor receptor 2 (P35968 whole entry): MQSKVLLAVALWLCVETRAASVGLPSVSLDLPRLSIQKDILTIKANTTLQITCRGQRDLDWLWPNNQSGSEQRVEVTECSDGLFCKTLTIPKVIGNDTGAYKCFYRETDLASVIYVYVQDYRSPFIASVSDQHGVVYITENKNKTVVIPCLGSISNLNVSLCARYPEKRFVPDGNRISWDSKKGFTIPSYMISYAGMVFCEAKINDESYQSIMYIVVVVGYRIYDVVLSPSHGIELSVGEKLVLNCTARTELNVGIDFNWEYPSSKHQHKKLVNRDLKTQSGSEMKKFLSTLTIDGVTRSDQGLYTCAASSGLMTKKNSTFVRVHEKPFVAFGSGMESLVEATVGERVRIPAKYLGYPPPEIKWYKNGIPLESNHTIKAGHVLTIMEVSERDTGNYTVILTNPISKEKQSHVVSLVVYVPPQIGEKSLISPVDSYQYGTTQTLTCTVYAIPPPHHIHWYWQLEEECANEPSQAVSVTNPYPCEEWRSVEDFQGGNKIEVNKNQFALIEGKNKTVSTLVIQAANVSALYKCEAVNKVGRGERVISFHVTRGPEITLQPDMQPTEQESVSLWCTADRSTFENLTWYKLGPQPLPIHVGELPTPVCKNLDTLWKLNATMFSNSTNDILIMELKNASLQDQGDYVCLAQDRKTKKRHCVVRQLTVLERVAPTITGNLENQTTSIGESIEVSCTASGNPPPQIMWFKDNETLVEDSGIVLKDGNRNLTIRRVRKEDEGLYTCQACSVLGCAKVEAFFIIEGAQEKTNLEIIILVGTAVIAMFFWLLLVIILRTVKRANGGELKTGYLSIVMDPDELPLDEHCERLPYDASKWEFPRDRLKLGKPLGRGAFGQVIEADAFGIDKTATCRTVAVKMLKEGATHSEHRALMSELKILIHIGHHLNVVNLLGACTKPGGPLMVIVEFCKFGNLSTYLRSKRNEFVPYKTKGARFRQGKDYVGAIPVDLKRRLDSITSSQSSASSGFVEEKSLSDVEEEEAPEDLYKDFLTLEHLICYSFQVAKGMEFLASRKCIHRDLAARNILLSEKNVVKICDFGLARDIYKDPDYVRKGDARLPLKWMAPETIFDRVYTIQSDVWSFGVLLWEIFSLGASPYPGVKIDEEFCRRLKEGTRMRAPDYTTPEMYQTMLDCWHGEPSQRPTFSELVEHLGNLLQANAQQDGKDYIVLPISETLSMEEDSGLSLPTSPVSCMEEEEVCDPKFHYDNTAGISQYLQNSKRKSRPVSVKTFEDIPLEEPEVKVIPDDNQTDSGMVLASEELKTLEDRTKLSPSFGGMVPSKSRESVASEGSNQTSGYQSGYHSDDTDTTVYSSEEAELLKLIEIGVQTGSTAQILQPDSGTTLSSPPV

Take `O=C(Nc1ccc(Oc2ccnc3cc(OC4CCOCC4)c4c(c23)OCCO4)cc1Cl)NC1CC1`: the IC50 in test [1] was less than 50 nM.
`CN(CCCOc1cc2nccc(Oc3ccc(NC(=O)Nc4ccc(Cl)c(C(F)(F)F)c4)cc3)c2c2c1OCCO2)C1CCC1`: the IC50 in test [1] and in test [2] was less than 50 nM in each case.
Turning to `O=C(Nc1ccc(Oc2ccnc3cc(OCCCN4CCOCC4)c4c(c23)OCCO4)cc1F)NC1CC1`, the IC50 in test [1] and in test [2] was less than 50 nM in each case.

The term IC50 denotes the concentration that gives 50% inhibition.
